In brackets after ≈: the same amount, converted by molar mass. Square brackets hold non-standard residues; d marks the D form. Peptide text beside a SMILES is read from it. Ava = NCCCCC(=O)O; GABA = NCCCC(=O)O; βAla = NCCC(=O)O A value given as a limit tells only on which side of the number the result lay.

For experiment [1], the system named is Escherichia coli. Nature of the experiment: Minimum inhibitory concentration against Escherichia coli ATCC 11775 strain. In kind it is functional.
Experiment [2] relates to Cell line. Nature of the experiment: Percent of intact peptide after 8 hr of digestion in 25% human serum. In kind it is functional.

On to `CC[C@H](C)[C@H](NC(=O)[C@@H]1CCCN1C(=O)[C@H](CCCN=C(N)N)NC(=O)[C@@H]1CCCN1C(=O)[C@H](Cc1c[nH]cn1)NC(=O)[C@H](CO)NC(=O)[C@@H](NC(=O)[C@@H]1CCCN1C(=O)[C@H](CCCN=C(N)N)NC(=O)[C@@H]1CCCN1C(=O)[C@@H](CO)NC(=O)[C@@H](Cc1ccc(O)cc1)NC(=O)[C@@H]1CCCN1C(=O)[C@H](CCCN=C(N)N)NC(=O)[C@@H]1CCCN1C(=O)[C@H](CCCCN)NC(=O)CN)[C@@H](C)O)C(=O)N[C@@H](CCCN=C(N)N)C(=O)N[C@H](C=O)C(C)C`, for which, in experiment [1], the minimal inhibitory concentration (MIC) (as a rule, the lowest concentration that inhibits growth of the organism) was determined as 25 µM (≈ 54.6 µg/mL). In addition, the Intact in experiment [2] amounted to 17%.

Take `CC[C@H](C)[C@H](NC(=O)[C@@H]1CCCN1C(=O)[C@H](CCCN=C(N)N)NC(=O)[C@@H]1CCCN1C(=O)[C@H](Cc1c[nH]cn1)NC(=O)[C@H](CO)NC(=O)[C@@H](NC(=O)[C@@H]1CCCN1C(=O)[C@H](CCCN=C(N)N)NC(=O)[C@@H]1CCCN1C(=O)[C@H](COC)NC(=O)[C@H](Cc1ccc(O)cc1)NC(=O)[C@@H]1CCCN1C(=O)[C@H](CCCN=C(N)N)NC(=O)[C@@H]1CCCN1C(=O)[C@H](CCCCN)NC(=O)CN)[C@@H](C)O)C(=O)N[C@@H](CCCN=C(N)N)C(=O)N[C@H](C=O)C(C)C` (H-GKPRPYS(Me)PRPTSHPRPIRV-aldehyde): in experiment [1], 25 µM (≈ 54.9 µg/mL) was the least that counted as inhibitory (MIC). The Intact in experiment [2] is recorded as 11%. Consider `CC[C@H](C)[C@H](NC(=O)CNC(=O)[C@H](Cc1ccc(O)cc1)NC(=O)[C@H](CC(=O)O)NC(=O)[C@@H](NC(=O)[C@H](CO)NC(=O)CNC(=O)[C@H](CC(=O)O)NC(=O)[C@@H](NC(=O)[C@@H](N)CC(N)=O)[C@@H](C)O)[C@@H](C)O)C(=O)N[C@@H](CC(C)C)C(=O)N[C@@H](CCC(N)=O)C(=O)N[C@H](C(=O)N[C@@H](CC(N)=O)C(=O)N[C@@H](CO)C(=O)N[C@H](C=O)CCCN=C(N)N)[C@@H](C)CC`, for which the MIC in experiment [1] was greater than 100 µM. As to `CC[C@H](C)[C@H](NC(=O)[C@@H]1CCCN1C(=O)[C@H](CCCN=C(N)N)NC(=O)[C@@H]1CCCN1C(=O)[C@H](Cc1c[nH]cn1)NC(=O)[C@H](CO)NC(=O)[C@@H](NC(=O)[C@@H]1CCCN1C(=O)[C@H](CCCN=C(N)N)NC(=O)[C@@H]1CCCN1C(=O)[C@@H](NC(=O)[C@H](Cc1ccc(O)cc1)NC(=O)[C@@H]1CCCN1C(=O)[C@H](CCCN=C(N)N)NC(=O)[C@@H]1CCCN1C(=O)[C@H](CCCCN)NC(=O)CCN)[C@@H](C)O)[C@@H](C)O)C(=O)N[C@@H](CCCN=C(N)N)C(=O)N[C@H](C(=O)O)C(C)C` (H-[βAla]KPRPYTPRPTSHPRPIRV-OH), the MIC in experiment [1] worked out at 3.1 µM (≈ 6.9 µg/mL). In experiment [2], this compound came in with an Intact of 87%. The corresponding values for `CC[C@H](C)[C@H](NC(=O)[C@@H]1CCCN1C(=O)[C@H](CCCN=C(N)N)NC(=O)[C@@H]1CCCN1C(=O)[C@H](Cc1c[nH]cn1)NC(=O)[C@H](CO)NC(=O)[C@@H](NC(=O)[C@@H]1CCCN1C(=O)[C@H](CCCN=C(N)N)NC(=O)[C@@H]1CCCN1C(=O)[C@@H](CO)NC(=O)[C@H](Cc1ccc(O)cc1)NC(=O)[C@@H]1CCCN1C(=O)[C@H](CCCN=C(N)N)NC(=O)[C@@H]1CCCN1C(=O)[C@H](CCCCN)NC(=O)CN)[C@@H](C)O)C(=O)N[C@@H](CCCN=C(N)N)C(=O)N[C@H](C=O)C(C)C` are 3.1 µM (≈ 6.77 µg/mL) and 1%. The corresponding values for `CC[C@H](C)[C@H](NC(=O)[C@@H]1CCCN1C(=O)[C@H](CCCN=C(N)N)NC(=O)[C@@H]1CCCN1C(=O)[C@H](Cc1c[nH]cn1)NC(=O)[C@H](CO)NC(=O)[C@@H](NC(=O)[C@@H]1CCCN1C(=O)[C@H](CCCN=C(N)N)NC(=O)[C@@H]1CCCN1C(=O)[C@H](CO)NC(=O)[C@@H](Cc1ccc(O)cc1)NC(=O)[C@@H]1CCCN1C(=O)[C@H](CCCN=C(N)N)NC(=O)[C@@H]1CCCN1C(=O)[C@H](CCCCN)NC(=O)CN)[C@@H](C)O)C(=O)N[C@@H](CCCN=C(N)N)C(=O)N[C@H](C=O)C(C)C` are 6.3 µM (≈ 13.8 µg/mL) and 16%. In experiment [1], `CC[C@H](C)[C@H](NC(=O)[C@@H]1CCCN1C(=O)[C@H](CCCN=C(N)N)NC(=O)[C@@H]1CCCN1C(=O)[C@H](Cc1c[nH]cn1)NC(=O)[C@H](CO)NC(=O)[C@@H](NC(=O)[C@@H]1CCCN1C(=O)[C@H](CCCN=C(N)N)NC(=O)[C@@H]1CCCN1C(=O)[C@@H](NC(=O)[C@H](Cc1ccc(O)cc1)NC(=O)[C@@H]1CCCN1C(=O)[C@H](CCCN=C(N)N)NC(=O)[C@@H]1CCCN1C(=O)[C@H](CCCCN)NC(=O)CN)[C@@H](C)O)[C@@H](C)O)C(=O)N[C@@H](CCCN=C(N)N)C(=O)N[C@H](C=O)C(C)C` (H-GKPRPYTPRPTSHPRPIRV-aldehyde) returned a minimal inhibitory concentration (MIC) of 1.6 µM (≈ 3.51 µg/mL). This compound had an Intact in experiment [2] of 15%.

In experiment [1], `CC[C@H](C)[C@H](NC(=O)[C@@H]1CCCN1C(=O)[C@H](CCCN=C(N)N)NC(=O)[C@@H]1CCCN1C(=O)[C@H](Cc1c[nH]cn1)NC(=O)[C@H](CO)NC(=O)[C@@H](NC(=O)[C@@H]1CCCN1C(=O)[C@H](CCCN=C(N)N)NC(=O)[C@@H]1CCCN1C(=O)C[C@@H](CO)NC(=O)[C@H](Cc1ccc(O)cc1)NC(=O)[C@@H]1CCCN1C(=O)[C@H](CCCN=C(N)N)NC(=O)[C@@H]1CCCN1C(=O)[C@H](CCCCN)NC(=O)CN)[C@@H](C)O)C(=O)N[C@@H](CCCN=C(N)N)C(=O)N[C@H](C=O)C(C)C` showed an MIC of 3.1 µM (≈ 6.81 µg/mL). The Intact in experiment [2] worked out at 31%. In the case of `CC[C@H](C)[C@H](NC(=O)[C@@H]1CCCN1C(=O)[C@H](CCCN=C(N)N)NC(=O)[C@@H]1CCCN1C(=O)[C@H](Cc1c[nH]cn1)NC(=O)[C@H](CO)NC(=O)[C@@H](NC(=O)[C@@H]1CCCN1C(=O)[C@H](CCCN=C(N)N)NC(=O)[C@@H]1CCCN1C(=O)[C@@H](NC(=O)[C@H](Cc1ccc(O)cc1)NC(=O)[C@@H]1CCCN1C(=O)[C@H](CCCN=C(N)N)NC(=O)[C@@H]1CCCN1C(=O)[C@H](CCCCN)NC(=O)CN)C(C)C)[C@@H](C)O)C(=O)N[C@@H](CCCN=C(N)N)C(=O)N[C@H](C=O)C(C)C` (H-GKPRPYVPRPTSHPRPIRV-aldehyde), the MIC in experiment [1] worked out at 12.5 µM (≈ 27.4 µg/mL).

The compound `CC[C@H](C)[C@H](NC(=O)[C@@H]1CCCN1C(=O)[C@H](CCCN=C(N)N)NC(=O)[C@@H]1CCCN1C(=O)[C@H](Cc1c[nH]cn1)NC(=O)[C@H](CO)NC(=O)[C@@H](NC(=O)[C@@H]1CCCN1C(=O)[C@H](CCCN=C(N)N)NC(=O)[C@@H]1CCCN1C(=O)[C@@H](NC(=O)[C@H](Cc1ccc(O)cc1)NC(=O)[C@@H]1CCCN1C(=O)[C@H](CCCN=C(N)N)NC(=O)[C@@H]1CCCN1C(=O)[C@H](CCCCN)NC(=O)CCCN)C(C)C)[C@@H](C)O)C(=O)N[C@@H](CCCN=C(N)N)C(=O)N[C@H](C=O)C(C)C` (H-[GABA]KPRPYVPRPTSHPRPIRV-aldehyde) registered an MIC in experiment [1] of 6.3 µM (≈ 14 µg/mL). The Intact in experiment [2] was 76%. Compound `CC[C@H](C)[C@H](NC(=O)[C@@H]1CCCN1C(=O)[C@H](CCCN=C(N)N)NC(=O)[C@@H]1CCCN1C(=O)[C@H](Cc1c[nH]cn1)NC(=O)[C@H](CO)NC(=O)[C@@H](NC(=O)[C@@H]1CCCN1C(=O)[C@H](CCCN=C(N)N)NC(=O)[C@@H]1CCCN1C(=O)[C@H](CO)NC(=O)[C@H](Cc1ccccc1)NC(=O)[C@@H]1CCCN1C(=O)[C@H](CCCN=C(N)N)NC(=O)[C@@H]1CCCN1C(=O)[C@H](CCCCN)NC(=O)CN)[C@@H](C)O)C(=O)N[C@@H](CCCN=C(N)N)C(=O)N[C@H](C=O)C(C)C` (H-GKPRPFSPRPTSHPRPIRV-aldehyde) had an MIC in experiment [1] of 3.1 µM (≈ 6.72 µg/mL). The Intact in experiment [2] amounted to 19%. The corresponding values for `CC[C@H](C)[C@H](NC(=O)[C@@H]1CCCN1C(=O)[C@H](CCCN=C(N)N)NC(=O)[C@@H]1CCCN1C(=O)[C@H](Cc1c[nH]cn1)NC(=O)[C@H](CO)NC(=O)[C@@H](NC(=O)[C@@H]1CCCN1C(=O)[C@H](CCCN=C(N)N)NC(=O)[C@@H]1CCCN1C(=O)[C@@H](NC(=O)[C@H](Cc1ccccc1)NC(=O)[C@@H]1CCCN1C(=O)[C@H](CCCN=C(N)N)NC(=O)[C@@H]1CCCN1C(=O)[C@H](CCCCN)NC(=O)CN)[C@@H](C)O)[C@@H](C)O)C(=O)N[C@@H](CCCN=C(N)N)C(=O)N[C@H](C=O)C(C)C` (H-GKPRPFTPRPTSHPRPIRV-aldehyde) are 3.1 µM (≈ 6.76 µg/mL) and 26%.

For `CC[C@H](C)[C@H](NC(=O)[C@@H]1CCCN1C(=O)[C@H](CCCN=C(N)N)NC(=O)[C@@H]1CCCN1C(=O)[C@H](Cc1c[nH]cn1)NC(=O)[C@H](CO)NC(=O)[C@@H](NC(=O)[C@@H]1CCCN1C(=O)[C@H](CCCN=C(N)N)NC(=O)[C@@H]1CCCN1C(=O)[C@@H](NC(=O)[C@H](Cc1ccc(O)cc1)NC(=O)[C@@H]1CCCN1C(=O)[C@H](CCCN=C(N)N)NC(=O)[C@@H]1CCCN1C(=O)[C@H](CCCCN)NC(=O)CCCCN)[C@@H](C)O)[C@@H](C)O)C(=O)N[C@@H](CCCN=C(N)N)C(=O)N[C@H](C(=O)O)C(C)C` (H-[Ava]KPRPYTPRPTSHPRPIRV-OH), the minimum inhibitory concentration (MIC) in experiment [1] came to 6.3 µM (≈ 14.2 µg/mL). The Intact in experiment [2] is reported as 84%. On to `CC[C@H](C)[C@H](NC(=O)[C@@H]1CCCN1C(=O)[C@H](CCCN=C(N)N)NC(=O)[C@@H]1CCCN1C(=O)[C@H](Cc1c[nH]cn1)NC(=O)[C@H](CO)NC(=O)[C@@H](NC(=O)[C@@H]1CCCN1C(=O)[C@H](CCCN=C(N)N)NC(=O)[C@@H]1CCCN1C(=O)[C@H](CO)NC(=O)C[C@@H](Cc1ccc(O)cc1)NC(=O)[C@@H]1CCCN1C(=O)[C@H](CCCN=C(N)N)NC(=O)[C@@H]1CCCN1C(=O)[C@H](CCCCN)NC(=O)CN)[C@@H](C)O)C(=O)N[C@@H](CCCN=C(N)N)C(=O)N[C@H](C=O)C(C)C`, for which it took 3.1 µM (≈ 6.81 µg/mL) to inhibit growth in experiment [1] (MIC). For the same compound, the Intact in experiment [2] came out at 2%. For H-GKPRPYSPRPTSHPRPIRV-OH [DROSOCIN], it took 6.3 µM to inhibit growth in experiment [1] (MIC). For the same compound, the Intact in experiment [2] stood at 3%.

The values are drawn from ChEMBL document CHEMBL1139602, “Biological evaluation of Tyr6 and Ser7 modified drosocin analogues” (2005).
